How the values were obtained:
[1] = tested on: […] cell lines, comprising 9 subtypes of lymphomas; experiment: Cell surface BCMA by FACS, lymphoma cell line panel; assay type: cell-based, human
Procedure: […] cell lines, comprising 9 subtypes of lymphomas (see Table 1), were seeded at 1×10^5 cells/well in a total volume of 250 μl into a 96-well plate. The cells were cultured in RPMI medium supplemented with 10% FCS. Compound (22) was added to the cell cultures at a concentration of 10 μM, 1 μM, 100 nM, 10 nM, 1 nM, 100 pM, 10 pM, 1 pM, and 100 fM, and cell lines (8 from Hadassah Medical Center, 31 from Eurofins) were incubated at 37° C. for 24 hours with Compound (22). Following incubation, the cells were collected and BCMA levels were evaluated on the cell surface for cell-bound BCMA. Cells were stained with an anti-BCMA antibody (PE anti-human 19F2 BCMA, Biolegend), and cell surface BCMA levels were determined by FACS analysis (Mean Fluorescence Intensity. Soluble BCMA levels were analyzed by ELISA (Human BCMA/TNFRSF17 DuoSet kit: R&D Systems).

[2] = tested on: U266 human myeloma cell line cells in NSG mice; experiment: Anti-tumor activity of BCMA-targeted CAR-T cells and Compound (1) in vivo; conditions: combination with 1×10^6 BCMA targeted CAR-T cells IV on day 4; imaging day 11
Procedure: BCMA targeted CAR-T cells mediate an anti-myeloma immune response. 1×10^7 U266 human myeloma cell line cells are injected IV into NSG mice on day 0. On day 4, a) 1×10^6 BCMA targeted second generation CAR-T cells, Compound (1) or both are injected IV.

Compound | cell-bound BCMA levels ([1]; B-ALL, histiocytic lymphoma, anaplastic large cell lymphoma, cutaneous T-cell lymphoma cell lines) | cell-bound BCMA levels ([1]; cell lines derived from Mantle Cell Lymphoma, DLBCL, Burkitt's Lymphoma, B-cell Lymphoma, 24 h) | cell-bound BCMA levels ([1]; cell lines from Hodgkin's Lymphoma patients) | increase of BCMA expression ([1]; certain lymphomas) | mBCMA ([1]; certain lymphomas) | anti-tumor response, imaging of tumors [2]
Cc1cccc2c1NC(=O)[C@@H](NC(=O)[C@H](CCC(F)(F)F)[C@H](CCC(F)(F)F)C(N)=O)N=C2c1cccc(F)c1 [Compound (22), (2R,3S)—N-((3S)-5-(3-fluorophenyl)-9-methyl-2-oxo-2,3-dihydro-1H-1,4-benzodiazepin-3-yl)-2,3-bis(3,3,3-trifluoropropyl)succinamide] | did not increase cell-bound BCMA levels | increased cell-bound BCMA levels | increased cell-bound BCMA levels | Compound (22) increases BCMA expression in certain lymphomas by 2-9 fold | increases mBCMA | 
CN1C(=O)[C@@H](NC(=O)[C@H](CCC(F)(F)F)[C@H](CCC(F)(F)F)C(N)=O)N=C(c2ccccc2)c2ccccc21 [Compound 1, (2R,3S)—N-((3S)-1-methyl-2-oxo-5-phenyl-2,3-dihydro-1H-1,4-benzodiazepin-3-yl)-2,3-bis(3,3,3-trifluoropropyl)succinamide] |  |  |  |  |  | improved anti-tumor response compared to either BCMA targeted CAR-T or Compound (1) treatment alone
